Measured values from patent US7626026B2, “Pyrrolo-indole and pyrrolo-quinoline derivatives as prodrugs for tumour treatment” (University of Bradford, priority 2001, dated 2009).
Marks after values point to notes of the source that are not given here.

Tested on: Chinese Hamster Ovary (CHO) cell
Assay: MTT cytotoxicity in CHO cells, with and without activation by NADPH-supplemented rat liver microsomes
Assay type: cell-based
Conditions: for IC50: Cricetulus griseus, CHO, cells incubated 24 hours, MTT, mean±sd for three experiments
Procedure: Test compound (synthesised in example 3) activation by CYP enzymes was carried out using NADPH supplemented rat liver microsomes; Incubation mixtures comprised microsomal protein (1 mg/ml), reduced-nicotinamide adenine dinucleotide phosphate (NADPH, 10 mM) and phosphate buffer (pH7.4, 100 mM). Test compound (0.01-100 μM final concentration) in DMSO (20 μl) was added to the microsomal incubation mixtures (0.5 ml) and incubated for 60 min at 37C. Control incubates contained test compound and microsomal incubation mixture terminated at 0 time. All incubations were terminated by addition of an equal volume of ice-cold acetonitrile and microfuged for 3 min. Aliquots of the supernatant were added to cells in culture.
Chinese Hamster Ovary (CHO) cell were grown in MEM supplemented with. 10% dialysed FBS and G418 (400 μg/ml). All cells were seeded at an initial density of 1000 cells/well in 96-well-plates, incubation at 37° C. for 24 hours. Aliquots (0.1 ml) of the test compound/microsomal/acetonitrile supernatnant was then added to the CHO cells. Cells were then incubated for 24 hours at 37° C., 5% CO2. After this time period MTT (50 μl; 2 mg/ml stock solution) was added to each well and cells were incubated for a further 4 hours. During this time period MTT, a hydrogen acceptor tetrazolium salt, is reduced to formazan dye by mitochondrial dehydrogenase of viable cells. The media was aspirated from cells and DMSO (100 μl/well) added to solubilise the coloured formazan dye. Absorbance of the formazan dye in the 96-well-plates was then determined at 550 nm. The effect of microsomal activation by the test compound on the arrest of CHO cell growth could be determined by comparing the IC50 (concentration that inhibited cell growth by 50%) with and without microsomal incubation.
Effect of compound 3.8 and its metabolism (activation) product on the survival of Chinese hamster ovary cells in culture. Cells were incubated for 24 hours with supernatants from reaction mixtures of compound 3.8 with NADPH fortified rat liver microsomes. […] Values are expressed as the mean±sd for three experiments. […]

Which results are given for CCOC(=O)c1cc2c3c(ccc2[nH]1)N(C(=O)c1cc2cc(OC)ccc2[nH]1)CC3CCl (stereo not drawn) [3.8, Ethyl 1-(chloromethyl)-3-((5-methoxy-1H-indol-2-yl)carbonyl)-1,2-dihydro-3H-pyrrolo[3,2-e]indole-7-carboxylate]?
AF (activity factor, ratio of IC50 cytotoxicity values obtained for ± activation) (CHO cells, IC50 −activation / IC50 +activation): 71.7*; IC50 (control incubate terminated at 0 time (no microsomal activation)): 4.3 ± 0.41 µM; IC50 (supernatant after 60 min incubation at 37C with NADPH-fortified rat liver microsomes): 0.06 ± 0.02 µM
